Measurements: patent US12458644B2, “Process for preparing solutions comprising biopterin derivatives” (VASOPHARM GMBH, priority 2014, dated 2025)
Counter-ions that a name gives are not always drawn. Blank lines part the entries; values can stand above or below the compound they belong to.

What was measured:
experimental TBI = details: literature: WO 2004/084906, Terpolilli et al. 2009; cited from earlier work
[1] = Stability of VAS203 dissolved in solution buffer at pH 7.4; type: physicochemical; details: oxidises to 4-Amino-7,8-dihydro-L-biopterin and 4-Amino-L-biopterin
Description: At a pH of 7.4 4-Amino-(6R,S)-5,6,7,8-tetrahydro-L-biopterin dihydrochloride dihydrate (VAS203) dissolved in solution buffer is very unstable and oxidises in its two metabolites 4-Amino-7,8-dihydro-L-biopterin and 4-Amino-L-biopterin. Therefore, it is important that the VAS203 solution is prepared with degassed buffer and after preparation of the VAS203 solution the lyophilisation should be started without delay.

[2] = Stability of reconstituted solution of VAS203 in 50 mL PP syringe at room temperature; type: physicochemical; details: for Further related substances, each / Further related substances, total / Purity (HPLC) (6R)-4-Amino-5,6,7,8-tetrahydro-L-biopterin / Purity (HPLC) (6S)-4-Amino-5,6,7,8-tetrahydro-L-biopterin / Related substances (HPLC) A: 4-Amino-7,8-dihydro-L-biopterin / Related substances (HPLC) B: Σ (6R)- and (6S)-5,6,7,8-Tetrahydro-L-biopterin / Related substances (HPLC) C: Σ 1-[(6R)- and (6S)-2,4-Diamino-5,6,7,8-tetrahydropteridin-6-yl]propanol / Reconstituted Solution pH / Assay (HPLC) (calculated on anhydrous and chloride-free basis): PP syringe; for Reconstituted Solution pH / Assay (HPLC) (calculated on anhydrous and chloride-free basis): reconstituted in 50 mL WFI; for Assay (HPLC) (calculated on anhydrous and chloride-free basis): day-light
Description: A stability study at room temperature was carried out for the drug substance VAS203 to test for any degradation of the reconstituted solution in transparent 50 mL polypropylene (PP) syringes which are used in clinical studies. During stability testing the PP syringes were exposed to normal day-light. Solution content, purity, related substances and pH were monitored for 48 hours (initial, 6, 24, 48 hours after preparation).

Compound: CC(O)C(O)C1CNc2nc(N)nc(N)c2N1 [4-Amino-5,6,7,8-tetrahydro-L-biopterin]
Efficacy in experimental TBI (experimental TBI): effective

Compound: CC(O)C(O)C1=Nc2c(N)nc(N)nc2NC1 [4-Amino-7,8-dihydro-L-biopterin]
Efficacy in experimental TBI (experimental TBI): effective

Stability in solution buffer [1]: very unstable
Period over which reconstituted solution is stable ([2]; 50 mL PP syringe, room temperature, exposed to normal day-light): 48 h
Further related substances, each ([2]; room temperature, 0 hours): 0.2 % area
Further related substances, total ([2]; room temperature, 0 hours): 0.5 % area
Purity (HPLC) (6R)-4-Amino-5,6,7,8-tetrahydro-L-biopterin ([2]; room temperature, 0 hours): 55.5 % area
Purity (HPLC) (6S)-4-Amino-5,6,7,8-tetrahydro-L-biopterin ([2]; room temperature, 0 hours): 39.0 % area
Related substances (HPLC) A: 4-Amino-7,8-dihydro-L-biopterin ([2]; room temperature, 0 hours): 3.3 % area
Related substances (HPLC) B: Σ (6R)- and (6S)-5,6,7,8-Tetrahydro-L-biopterin ([2]; room temperature, 0 hours): 0.6 % area
Related substances (HPLC) C: Σ 1-[(6R)- and (6S)-2,4-Diamino-5,6,7,8-tetrahydropteridin-6-yl]propanol ([2]; room temperature, 0 hours): 1.5 % area
Further related substances, each ([2]; room temperature, 6 hours): 0.2 % area
Further related substances, total ([2]; room temperature, 6 hours): 0.6 % area
Purity (HPLC) (6R)-4-Amino-5,6,7,8-tetrahydro-L-biopterin ([2]; room temperature, 6 hours): 55.4 % area
Purity (HPLC) (6S)-4-Amino-5,6,7,8-tetrahydro-L-biopterin ([2]; room temperature, 6 hours): 38.5 % area
Related substances (HPLC) A: 4-Amino-7,8-dihydro-L-biopterin ([2]; room temperature, 6 hours): 3.8 % area
Related substances (HPLC) B: Σ (6R)- and (6S)-5,6,7,8-Tetrahydro-L-biopterin ([2]; room temperature, 6 hours): 0.6 % area
Related substances (HPLC) C: Σ 1-[(6R)- and (6S)-2,4-Diamino-5,6,7,8-tetrahydropteridin-6-yl]propanol ([2]; room temperature, 6 hours): 1.6 % area
Further related substances, each ([2]; room temperature, 24 hours): 0.2 % area
Further related substances, total ([2]; room temperature, 24 hours): 0.6 % area
Purity (HPLC) (6R)-4-Amino-5,6,7,8-tetrahydro-L-biopterin ([2]; room temperature, 24 hours): 55.4 % area
Purity (HPLC) (6S)-4-Amino-5,6,7,8-tetrahydro-L-biopterin ([2]; room temperature, 24 hours): 38.4 % area
Related substances (HPLC) A: 4-Amino-7,8-dihydro-L-biopterin ([2]; room temperature, 24 hours): 3.8 % area
Related substances (HPLC) B: Σ (6R)- and (6S)-5,6,7,8-Tetrahydro-L-biopterin ([2]; room temperature, 24 hours): 0.6 % area
Related substances (HPLC) C: Σ 1-[(6R)- and (6S)-2,4-Diamino-5,6,7,8-tetrahydropteridin-6-yl]propanol ([2]; room temperature, 24 hours): 1.5 % area
Further related substances, each ([2]; room temperature, 48 hours): 0.1 % area
Further related substances, total ([2]; room temperature, 48 hours): 0.4 % area
Purity (HPLC) (6R)-4-Amino-5,6,7,8-tetrahydro-L-biopterin ([2]; room temperature, 48 hours): 55.5 % area
Purity (HPLC) (6S)-4-Amino-5,6,7,8-tetrahydro-L-biopterin ([2]; room temperature, 48 hours): 38.1 % area
Related substances (HPLC) A: 4-Amino-7,8-dihydro-L-biopterin ([2]; room temperature, 48 hours): 4.1 % area
Related substances (HPLC) B: Σ (6R)- and (6S)-5,6,7,8-Tetrahydro-L-biopterin ([2]; room temperature, 48 hours): 0.6 % area
Related substances (HPLC) C: Σ 1-[(6R)- and (6S)-2,4-Diamino-5,6,7,8-tetrahydropteridin-6-yl]propanol ([2]; room temperature, 48 hours): 1.5 % area
Reconstituted Solution pH ([2]; room temperature, 0 hours): 7.1
Reconstituted Solution pH ([2]; room temperature, 24 hours): 7.1
Reconstituted Solution pH ([2]; room temperature, 48 hours): 7.1
Assay (HPLC) (calculated on anhydrous and chloride-free basis) ([2]; room temperature, 0 hours): 615 mg
Assay (HPLC) (calculated on anhydrous and chloride-free basis) ([2]; room temperature, 6 hours): 610 mg
Assay (HPLC) (calculated on anhydrous and chloride-free basis) ([2]; room temperature, 24 hours): 621 mg
Assay (HPLC) (calculated on anhydrous and chloride-free basis) ([2]; room temperature, 48 hours): 626 mg
Light sensitivity ([2]; reconstituted solution, normal day-light, up to 48 hours): not observed
Degradation products formed ([2]; reconstituted solution, room temperature, 48 hours): No degradation products were formed
Use-by date after preparation of the solution ([2]; reduced to avoid microbiological contamination): 27 h
Compound: CC(O)C(O)C1CNc2nc(N)nc(N)c2N1 [VAS203, 4-Amino-(6R,S)-5,6,7,8-tetrahydro-L-biopterin dihydrochloride dihydrate]
